# Values joined by “and” are separate entries in the source; they are usually repeats but may differ in a detail not shown here. Equal values may be shown once.
# Tested on: MX-1 breast xenograft, nude mice, tumor weight change
# Assay: NCI In Vivo Anticancer Drug Screen. Data for tumor model Human Mammary Carcinoma MX-1 Xenograft (subcutaneous) in NU/NU Swiss (nude) mice
# Settings: endpoint: optimum tumor weight change, schedule: Q04DX003 (ip), higher = larger tumour
# Experimental: The antitumor activity of compounds was measured in mice bearing transplantable tumors. Survival or tumor size were measured and the results are expressed as the measurement made in the treated group (T) divided by the measurement made in the vehicle treated control group (C). The tumor model used in this assay is Human Mammary Carcinoma MX-1 Xenograft (subcutaneous) in NU/NU Swiss (nude) mice
# [1] = dose: 100.0 mg/kg/injection, vehicle: saline
# [2] = dose: 200.0 mg/kg/injection, vehicle: saline
# [3] = dose: 25.0 mg/kg/injection, vehicle: saline
# [4] = dose: 50.0 mg/kg/injection, vehicle: Klucel (hydroxypropylcellulose) (HPC)
# [5] = dose: 100.0 mg/kg/injection, vehicle: Klucel (hydroxypropylcellulose) (HPC)
# [6] = dose: 400.0 mg/kg/injection, vehicle: saline
# [7] = dose: 800.0 mg/kg/injection, vehicle: saline
# [8] = dose: 1600.0 mg/kg/injection, vehicle: saline
# [9] = dose: 400.0 mg/kg/injection, vehicle: saline with Tween-80
# [10] = dose: 0.25 mg/kg/injection, vehicle: water
# [11] = dose: 0.5 mg/kg/injection, vehicle: water
# [12] = dose: 1.0 mg/kg/injection, vehicle: water
# [13] = dose: 50.0 mg/kg/injection, vehicle: saline with Tween-80
# [14] = dose: 3.0 mg/kg/injection, vehicle: saline
# [15] = dose: 100.0 mg/kg/injection, vehicle: saline with Tween-80
compound,measurement,setting,value
Oc1ccc(O)cc1,T/C,[1],110 % of control
CN(N=O)C(=O)N[C@@H](C=O)[C@@H](O)[C@H](O)[C@H](O)CO,T/C,[1],58 % of control
same,T/C,[2],80 % of control
CNC(=O)ON(C(C)=O)C(=O)NC,T/C,"dose: 12.5 mg/kg/injection, vehicle: saline",81 % of control
same,T/C,[3],108 % of control
Cc1c(N)nc([C@H](CC(N)=O)NC[C@H](N)C(N)=O)nc1C(=O)N[C@H](C(=O)N[C@H](C)[C@@H](O)[C@H](C)C(=O)N[C@H](C(=O)NCCc1nc(-c2nc(C(=O)NCCC[S+](C)C)cs2)cs1)[C@@H](C)O)C(OC1OC(CO)C(O)C(O)C1OC1OC(CO)C(O)C(OC(N)=O)C1O)c1cnc[nH]1 (stereo partly drawn),T/C,"dose: 3.75 mg/kg/injection, vehicle: saline",52 % of control
same,T/C,"dose: 4.0 mg/kg/injection, vehicle: saline",55 % of control
same,T/C,"dose: 7.5 mg/kg/injection, vehicle: saline",40 % of control and 41 % of control
same,T/C,"dose: 8.0 mg/kg/injection, vehicle: saline",55 % of control and 67 % of control
same,T/C,"dose: 15.0 mg/kg/injection, vehicle: saline",31 % of control (2×) and 39 % of control
same,T/C,"dose: 16.0 mg/kg/injection, vehicle: saline",32 % of control and 39 % of control
same,T/C,"dose: 30.0 mg/kg/injection, vehicle: saline",17 % of control and 21 % of control and 25 % of control
same,T/C,"dose: 32.0 mg/kg/injection, vehicle: saline",15 % of control and 22 % of control and 27 % of control
same,T/C,"dose: 60.0 mg/kg/injection, vehicle: saline",13 % of control and 21 % of control
same,T/C,"dose: 64.0 mg/kg/injection, vehicle: saline",16 % of control and 27 % of control
CCCC(=O)OCc1cc(=O)n(C)c2c3c4c(cc12)c(C)cc(=O)n4CO3,T/C,[4],48 % of control
same,T/C,[5],70 % of control
Nc1nc(N)c2cc(CNc3ccc(C(=O)NC(CC(=O)O)CC(=O)O)cc3)ccc2n1,T/C,[4],75 % of control
same,T/C,[5],49 % of control
N=C(N)SCc1c2ccccc2c(CSC(=N)N)c2ccccc12,T/C,"dose: 25.0 mg/kg/injection, vehicle: suspension in saline",83 % of control
same,T/C,"dose: 50.0 mg/kg/injection, vehicle: suspension in saline",123 % of control
CNC=O,T/C,[2],7 % of control and 29 % of control
same,T/C,[6],-1 % of control and 17 % of control
same,T/C,[7],-12 % of control
same,T/C,[8],-64 % of control
CN(C)N=Nc1ccccc1,T/C,[4],221 % of control
Nc1ccc(Cl)cc1N,T/C,[9],109 % of control
same,T/C,"dose: 800.0 mg/kg/injection, vehicle: saline with Tween-80",110 % of control
same,T/C,"dose: 1600.0 mg/kg/injection, vehicle: saline with Tween-80",117 % of control
same,T/C,"dose: 3200.0 mg/kg/injection, vehicle: saline with Tween-80",80 % of control
O=C/C(Cl)=C(/Cl)C(=O)O,T/C,"dose: 12.5 mg/kg/injection, vehicle: saline with Tween-80",96 % of control
COc1cc([C@@H]2c3cc4c(c(O)c3C[C@H]3COC(=O)[C@@H]32)OCO4)cc(OC)c1OC,T/C,"dose: 2.5 mg/kg/injection, vehicle: saline",113 % of control
same,T/C,"dose: 5.0 mg/kg/injection, vehicle: saline",64 % of control
same,T/C,"dose: 10.0 mg/kg/injection, vehicle: saline",112 % of control
COc1cccc2c1C(=O)c1c(O)c3c(c(O)c1C2=O)C[C@@](O)(C(=O)CO)C[C@@H]3OC1CC(N)CC(C)O1 (stereo partly drawn),T/C,"dose: 0.13 mg/kg/injection, vehicle: water",93 % of control
same,T/C,[10],112 % of control
same,T/C,[11],97 % of control
same,T/C,"dose: 0.75 mg/kg/injection, vehicle: water",93 % of control
same,T/C,[12],65 % of control
same,T/C,"dose: 1.5 mg/kg/injection, vehicle: water",78 % of control
same,T/C,"dose: 3.0 mg/kg/injection, vehicle: water",63 % of control
COc1cccc2c1C(=O)c1c(O)c3c(c(O)c1C2=O)C[C@@](O)(C(=O)CO)C[C@@H]3OC1CC(N)C(O)C(C)O1 (stereo partly drawn),T/C,[12],97 % of control
CC(C)CCCCCCCCCCCCC(=O)NCC(=O)NC1C(C)OC(Nc2ncnc3nc[nH]c23)C(O)C1O (stereo not drawn),T/C,"dose: 3.13 mg/kg/injection, vehicle: distilled water + Tween-80",102 % of control
CC1OC(OC2CC(O)(C(=O)CO)Cc3c(O)c4c(c(O)c32)C(=O)c2ccccc2C4=O)CC(N)C1O (stereo not drawn),T/C,[10],104 % of control
same,T/C,[11],104 % of control
O=Cc1ccc(O)c(O)c1,T/C,[13],63 % of control
same,T/C,[9],89 % of control
COc1cccc2c1C(=O)c1c(O)c3c(c(O)c1C2=O)C[C@@](O)(C(C)=O)C[C@@H]3OC1CC(N)C(O)C(C)O1 (stereo partly drawn),T/C,"dose: 1.0 mg/kg/injection, vehicle: saline",72 % of control
NC(=O)c1ccc[n+](Cc2c(Cl)cccc2Cl)c1,T/C,[14],169 % of control
same,T/C,"dose: 24.0 mg/kg/injection, vehicle: saline",111 % of control and 112 % of control
same,T/C,"dose: 96.0 mg/kg/injection, vehicle: saline",100 % of control
Cn1cnc([N+](=O)[O-])c1[Se]c1nc(N)nc2nc[nH]c12,T/C,"dose: 12.5 mg/kg/injection, vehicle: water",103 % of control
same,T/C,"dose: 25.0 mg/kg/injection, vehicle: water",84 % of control
same,T/C,"dose: 50.0 mg/kg/injection, vehicle: water",60 % of control
CC(=O)OCC1OC(n2cc(CBr)nn2)C(OC(C)=O)C(OC(C)=O)C1OC(C)=O (stereo not drawn),T/C,"dose: 25.0 mg/kg/injection, vehicle: saline with Tween-80",119 % of control
same,T/C,[13],150 % of control
same,T/C,[15],57 % of control
COc1cccc2c1C(=O)c1c(O)c3c(c(O)c1C2=O)C[C@@](O)(/C(C)=N\O)C[C@@H]3OC1CC(N)C(O)C(C)O1 (stereo partly drawn),T/C,[3],66 % of control
O=P1(NCCCl)OCCCN1CCCl (stereo not drawn),T/C,[3],57 % of control
same,T/C,"dose: 50.0 mg/kg/injection, vehicle: saline",56 % of control
CC(=O)OCC(=O)[C@@]12OC(C)(C)O[C@@H]1C[C@H]1[C@@H]3CC(C=O)=C4C=C(OCCCl)CC[C@]4(C)[C@@]3(F)[C@@H](O)C[C@@]12C,T/C,[4],54 % of control
NC(Cc1ccc(N(CCCl)CCCl)cc1)C(=O)O (stereo not drawn),T/C,"dose: 2.5 mg/kg/injection, vehicle: Klucel (hydroxypropylcellulose) (HPC)",49 % of control
same,T/C,"dose: 5.0 mg/kg/injection, vehicle: Klucel (hydroxypropylcellulose) (HPC)",15 % of control
same,T/C,"dose: 10.0 mg/kg/injection, vehicle: Klucel (hydroxypropylcellulose) (HPC)",-69 % of control and -81 % of control
C[n+]1c(-c2cccc3ccccc23)c2cc(N)ccc2c2ccccc21,T/C,[14],76 % of control and 82 % of control
same,T/C,"dose: 6.0 mg/kg/injection, vehicle: saline",78 % of control
CC(C)CCCCCCCCCCCCC(=O)NCC(=O)NC1C(O)C(O)C(Nc2ncnc3nc[nH]c23)OC1C(O)CO (stereo not drawn),T/C,"dose: 3.0 mg/kg/injection, vehicle: suspension in saline",91 % of control
same,T/C,"dose: 6.0 mg/kg/injection, vehicle: suspension in saline",109 % of control
same,T/C,"dose: 12.0 mg/kg/injection, vehicle: suspension in saline",30 % of control
O=C(O)CP(=O)(O)O,T/C,[2],87 % of control
same,T/C,[6],69 % of control
same,T/C,[7],48 % of control
same,T/C,[8],50 % of control
O=C1N(Cl)C(=O)C(c2ccc(Cl)cc2)(c2ccc(Cl)cc2)N1Cl,T/C,[15],98 % of control
CCN(CC)CCCC(C)Nc1c2ccc(Cl)cc2nc2ccc(OC)cc12 (stereo not drawn),T/C,[13],95 % of control
same,T/C,[15],88 % of control
CO[C@H]1C[C@](C)(O)Cc2cc3c(c(O)c21)C(=O)c1c(O)cc2c(c1C3=O)O[C@@H]1O[C@@]2(C)[C@H](O)[C@@H](N(C)C)[C@@H]1O,T/C,"dose: 6.25 mg/kg/injection, vehicle: other",169 % of control
same,T/C,"dose: 12.5 mg/kg/injection, vehicle: other",165 % of control

# From PubChem BioAssay AID294 (DTP/NCI, 2004)
